Reference: patent US4983582A, “Preventive and therapeutic method for hypertension” (Kao Corporation, priority 1987, dated 1991)
“Also recorded” adds a separate entry of the source.

Tests used:
SHR-rat [1] = experiment: Example 1: systolic blood pressure of SHR-rat at tail, 3 months oral administration; assay type: in vivo; conditions: 3 ml/day per orally, average, n = 10
Description: To each group comprising 10 male SHR of approx. 300 g of the body weight was per orally dosed 3 ml/day of the following aqueous solutions for 3 months;
an aqueous solution of glucose-1-phosphate calcium (2 g/100 ml) represented by the structural formula (a), and
an aqueous solution of glucose-1-phosphate calcium containing compounds of the general formulas (a) and (b) in the weight ratio of 9:1,
while to a control group was given distilled water.
The systolic blood pressure was measured at the tail of each subject, every one, two and three months of the administration period.

SHR-rat [2] = experiment: Example 2: systolic blood pressure in the SHR, tail artery, closed method, 15 weeks administration; assay type: in vivo; conditions: for Systolic blood pressure in the SHR: average, n = 10
Description: To each group comprising 10 male SHR at the age of 9 weeks was dosed average 30 ml/day of the following aqueous solutions for 15 weeks; an aqueous solution of glucose-1-phosphate calcium (1 g/100 ml) represented by the structural formula (a), an aqueous solution of calcium lactate (0.83 g/100 ml), and an aqueous solution of hydrochlorothiazide (0.093 g/100 ml), which is one of the thiazide diuretics, while to a control group was dosed distilled water.
Systolic blood pressure was measured in a closed method in the tail artery of the subject at each time of before administration, 5 weeks of administration, and 15 weeks of administration (the measuring apparatus employed was PS-200 of Rikenkaihatsu Co.).

[3] = acute toxicity on peroral dosing to a mouse; conditions: in vivo, po, perorally, read-out: peroral dose at which it exhibits an acute toxicity
[4] = Japanese Patent Publication No. 46-7599 for dental caries; cited from earlier work
[5] = 5 weeks after, average 30 ml/day, glucose-1-phosphate calcium 1 g/100 ml, calcium lactate 0.83 g/100 ml, hydrochlorothiazide 0.093 g/100 ml, control 203
[6] = 15 weeks after, average 30 ml/day, glucose-1-phosphate calcium 1 g/100 ml, calcium lactate 0.83 g/100 ml, hydrochlorothiazide 0.093 g/100 ml, control 211
[7] = before administration, control 197

SMILES	Systolic blood pressure of SHR-rat at tail (SHR-rat [1]; 1 month, control 150)	Systolic blood pressure of SHR-rat at tail (SHR-rat [1]; 2 months, control 187)	Systolic blood pressure of SHR-rat at tail (SHR-rat [1]; 3 months, control 215)	Systolic blood pressure in the SHR (SHR-rat [2]; [5])	Systolic blood pressure in the SHR (SHR-rat [2]; [6])	Systolic blood pressure in the SHR (SHR-rat [2]; [7])	reduction of the systolic blood pressure of SHR-rat compared with hydrochlorothiazide (SHR-rat [2]; SHR-rat, Table 2)	LD50 [3] [mg/kg]	physiological effects already reported [4]
O=P(O)(O)OC1O[C@H](CO)[C@@H](O)[C@H](O)[C@H]1O (stereo partly drawn) [Glucose-1-phosphate calcium (a), glucose-1-phosphate calcium]	148	153	155	175	185	199	–	–	–
O=P(O)(O)OC1O[C@H](CO)[C@@H](O)[C@H](O)[C@H]1O (stereo partly drawn) [glucose-1-phosphate calcium]	–	–	–	–	–	–	substantially in the same extent as hydrochlorothiazide	≥ 15000	effect of inhibiting dental caries; also recorded: cartilage-calcification promotion effect; also recorded: fatigue-recuperation effect
CC(O)C(=O)O (stereo not drawn) [Calcium lactate, calcium lactate]	–	–	–	190	204	198	–	–	–
NS(=O)(=O)c1cc2c(cc1Cl)NCNS2(=O)=O [Hydrochlorothiazide, hydrochlorothiazide]	–	–	–	175	188	200	–	–	–
